According to ChEMBL document CHEMBL1201862, “PubChem BioAssay data set” (2004):
Activity calls are given as the source filed them.

Tests used:
[1] = target: RNA-editing ligase 1, mitochondrial (Trypanosoma brucei brucei, UniProt P86926); experiment: TbREL1 ligase inhibitors, dose response, biochemical, fluorescence, Trypanosoma brucei (AID 1117295); assay type: functional
[2] = cytotoxicity in HPDE-C7 cells, cell-based, fluorescence, HTS (AID 430); assay type: functional; details: Homo sapiens
[3] = Artemis endonuclease inhibitor potency, dose response, biochemical, fluorescence intensity (AID 720701); assay type: functional;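 note: Artemis endonuclease enzyme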
[4] = cytotoxicity in KRAS-transformed pancreatic duct cells, primary screen, cell-based, fluorescence, HTS (AID 431); assay type: functional; details: Homo sapiens;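 note: cell line used: HPDE-C7K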
[5] = cytotoxicity toward NIH3T3 fibroblasts, dose response, counter-screen, cell-based, ATP luminescence, mouse fibroblasts (AID 2010); assay type: functional;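 note: cells exposed to compound for about 90 hours before reading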
[6] = target: NAD-dependent protein deacylase sirtuin-5, mitochondrial (Homo sapiens, UniProt Q9NXA8); experiment: SIRT5 desuccinylase inhibitors, dose response, biochemical, fluorescence imaging, cherry-pick, set 5 (AID 720591);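 note: desuccinylation of succinyl peptide AMC substrate read as fluorescence after trypsin release; potency of inhibitors that lower fluorescence and may act on trypsin instead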
[7] = inhibitors of intracellular T. cruzi replication, confirmation, NIH3T3 host cells, beta-gal luminescence (AID 2044); assay type: functional, cell-based;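 note: intracellular parasites grown in NIH/3T3 mouse fibroblasts as host cells; luminescent beta-galactosidase reporter signal from transgenic T. cruzi replicating inside host cells; inhibitors lower the luminescence signal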
[8] = target: Kallikrein-7 (Homo sapiens, UniProt P49862); experiment: Fluorescence Intensity-based biochemical primary high throughput dose response assay to identify activators of kallikrein-7 (K7) zymogen.
[9] = target: Caspase-7 (Homo sapiens, UniProt P55210); experiment: human caspase-7 inhibitors, dose response, selectivity assay for caspase-6 inhibitor project, biochemical, DEVD-R110 fluorescence, cherry-pick (AID 743295)
[10] = target: T1, Histone-lysine N-methyltransferase NSD2 (Homo sapiens, UniProt O96028); assay type: biochemical
T1 sequence (O96028 whole entry): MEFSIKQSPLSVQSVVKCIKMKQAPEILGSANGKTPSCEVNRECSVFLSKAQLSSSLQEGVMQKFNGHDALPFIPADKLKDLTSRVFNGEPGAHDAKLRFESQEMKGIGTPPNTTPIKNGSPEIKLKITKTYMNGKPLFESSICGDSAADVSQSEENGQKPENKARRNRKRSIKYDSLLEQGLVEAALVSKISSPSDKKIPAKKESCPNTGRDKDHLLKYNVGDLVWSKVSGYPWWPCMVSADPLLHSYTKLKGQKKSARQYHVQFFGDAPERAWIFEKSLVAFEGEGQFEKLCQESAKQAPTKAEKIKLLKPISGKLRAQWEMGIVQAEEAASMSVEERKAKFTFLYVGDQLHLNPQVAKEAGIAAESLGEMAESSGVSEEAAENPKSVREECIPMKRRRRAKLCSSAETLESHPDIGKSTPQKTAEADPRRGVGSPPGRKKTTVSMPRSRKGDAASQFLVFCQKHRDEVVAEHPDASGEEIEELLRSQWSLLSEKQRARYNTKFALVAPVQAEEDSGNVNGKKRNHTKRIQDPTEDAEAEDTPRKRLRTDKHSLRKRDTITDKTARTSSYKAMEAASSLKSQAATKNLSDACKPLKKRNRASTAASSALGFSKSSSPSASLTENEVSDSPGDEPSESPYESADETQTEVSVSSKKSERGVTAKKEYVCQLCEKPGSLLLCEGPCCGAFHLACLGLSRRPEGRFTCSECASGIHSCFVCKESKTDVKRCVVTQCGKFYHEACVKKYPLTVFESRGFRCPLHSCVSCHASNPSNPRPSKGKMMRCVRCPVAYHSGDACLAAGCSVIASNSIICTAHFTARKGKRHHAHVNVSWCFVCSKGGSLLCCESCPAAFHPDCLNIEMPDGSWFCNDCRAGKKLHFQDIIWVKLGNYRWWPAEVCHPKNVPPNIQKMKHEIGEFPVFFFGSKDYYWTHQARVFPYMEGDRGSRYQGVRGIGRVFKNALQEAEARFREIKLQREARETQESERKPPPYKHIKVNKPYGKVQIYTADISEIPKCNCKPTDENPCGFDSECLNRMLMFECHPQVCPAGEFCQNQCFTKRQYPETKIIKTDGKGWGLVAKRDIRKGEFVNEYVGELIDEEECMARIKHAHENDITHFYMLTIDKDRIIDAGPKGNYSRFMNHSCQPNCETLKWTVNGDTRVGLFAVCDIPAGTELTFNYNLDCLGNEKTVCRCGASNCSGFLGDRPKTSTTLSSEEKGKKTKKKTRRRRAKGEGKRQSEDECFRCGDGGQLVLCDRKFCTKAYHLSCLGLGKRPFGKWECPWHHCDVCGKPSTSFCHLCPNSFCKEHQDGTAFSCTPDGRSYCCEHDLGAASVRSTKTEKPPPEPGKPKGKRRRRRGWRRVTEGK

[11] = target: T2, Protein skinhead-1 (Caenorhabditis elegans, UniProt P34707); assay type: functional
T2 sequence (P34707 whole entry): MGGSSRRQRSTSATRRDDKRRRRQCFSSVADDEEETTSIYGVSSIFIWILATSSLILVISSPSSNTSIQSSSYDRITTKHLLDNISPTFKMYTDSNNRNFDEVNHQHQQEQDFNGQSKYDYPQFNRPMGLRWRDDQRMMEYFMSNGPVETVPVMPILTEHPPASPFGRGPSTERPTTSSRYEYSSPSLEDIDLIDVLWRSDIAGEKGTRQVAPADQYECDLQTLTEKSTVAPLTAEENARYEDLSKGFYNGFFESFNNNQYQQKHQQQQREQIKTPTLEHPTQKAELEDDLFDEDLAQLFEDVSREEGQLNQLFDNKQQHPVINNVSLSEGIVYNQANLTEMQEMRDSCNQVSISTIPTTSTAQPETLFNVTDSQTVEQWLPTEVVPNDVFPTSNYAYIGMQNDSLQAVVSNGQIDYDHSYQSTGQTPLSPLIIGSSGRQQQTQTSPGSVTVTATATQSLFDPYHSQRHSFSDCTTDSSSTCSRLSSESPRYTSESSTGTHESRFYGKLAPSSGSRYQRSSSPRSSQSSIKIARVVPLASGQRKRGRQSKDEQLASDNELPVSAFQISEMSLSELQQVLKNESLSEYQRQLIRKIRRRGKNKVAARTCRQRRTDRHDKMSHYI

[12] = target: Caspase-6 (Homo sapiens, UniProt P55212); experiment: human caspase-6 inhibitors, dose response, biochemical, VEID-R110 fluorescence, cherry-pick (AID 720632)
[13] = target: T3, DNA repair protein RAD52 homolog (Homo sapiens, UniProt P43351); assay type: functional, biochemical
T3 sequence (P43351 whole entry): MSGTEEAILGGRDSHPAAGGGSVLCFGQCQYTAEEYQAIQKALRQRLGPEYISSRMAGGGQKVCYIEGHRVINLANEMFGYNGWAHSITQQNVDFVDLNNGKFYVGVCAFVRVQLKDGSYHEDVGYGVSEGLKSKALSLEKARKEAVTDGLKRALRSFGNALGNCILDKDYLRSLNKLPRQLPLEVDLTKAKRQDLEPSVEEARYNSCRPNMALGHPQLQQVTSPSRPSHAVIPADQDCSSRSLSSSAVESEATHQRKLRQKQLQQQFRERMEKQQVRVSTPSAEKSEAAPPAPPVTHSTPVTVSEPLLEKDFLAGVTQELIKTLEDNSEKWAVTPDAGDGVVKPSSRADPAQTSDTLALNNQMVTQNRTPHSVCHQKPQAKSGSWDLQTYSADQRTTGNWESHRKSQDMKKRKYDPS

[14] = target: Paired box protein Pax-8 (Homo sapiens, UniProt Q06710); experiment: inhibitors of PAX8-driven TPO luciferase reporter, dose response, RMG-I cells, cherry-pick (AID 687027); assay type: functional, cell-based;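 note: luciferase reporter driven by Pax8 target thyroperoxidase promoter measured by SteadyGlo luminescence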
[15] = HepG2 cell cytotoxicity, dose response, cytotoxicity control for Shn3 inhibitor project, CellTiter-Glo, cherry-picked (AID 624134); assay type: functional, cell-based
[16] = A549 cell cytotoxicity, dose response, CellTiter-Glo luminescence, dry powder, set 17 (AID 1117284); assay type: functional, cell-based
[17] = nonselective inhibitors of cellular cAMP signaling, dose response, counter-screen for MC4R biased antagonist project, cell-based, TR-FRET cAMP detection (AID 602305); assay type: functional;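 note: U2OS cells stimulated with forskolin near its EC80 as the cAMP inducer; potency is for inhibition of forskolin-stimulated cAMP signaling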
[18] = Shn3 3'UTR reporter inhibitors, dose response, cell-based, Clone20 osteoblasts, firefly luciferase, cherry-picked (AID 624132); assay type: functional;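 note: firefly luciferase luminescence from reporter carrying the Shn3 3'UTR in osteoblasts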
[19] = target: Melanocortin receptor 4 (Homo sapiens, UniProt P32245); experiment: MC4R antagonist potency on cAMP, dose response, cell-based, TR-FRET, biased antagonists (AID 602298); assay type: functional;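 note: antagonist potency against agonist-stimulated cAMP production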
[20] = control 3'UTR Renilla luciferase suppression, dose response, counter-screen for Shn3 inhibitor project, cell-based, Clone20-Shn3RL, cherry-picked (AID 624133); assay type: functional
[21] = A549 cell cytotoxicity, dose response, cytotoxicity control, 24 h, CellTiter-Glo luminescence, cherry-picks (AID 1053115); assay type: functional, cell-based; details: A549, 24 h
[22] = cytotoxicity in OVCAR8 ovarian cancer cells, dose response, PAX8 project, cell-based, plate reader, dry powder samples (AID 743197); assay type: functional; details: OVCAR-8
[23] = NIH:OVCAR-3 ovarian cancer cell cytotoxicity, dose response, PAX8 inhibitor project, plate reader, dry powder samples (AID 743044); assay type: functional, cell-based
[24] = non-specific cell cytotoxicity, dose response, cytotoxicity control for PAX8 inhibitor project, plate reader, dry powder samples (AID 743021); assay type: functional, cell-based
[25] = A2780 ovarian cancer cell cytotoxicity, dose response, cytotoxicity control, plate reader, dry powder samples (AID 743046); assay type: functional, cell-based
[26] = IGROV1 ovarian cancer cell cytotoxicity, dose response, PAX8 inhibitor project, plate reader, dry powder samples (AID 743043); assay type: functional, cell-based; details: IGROV-1
[27] = Late stage assay provider results from the probe development effort to identify inhibitors of the Plasmodium falciparum M18 Aspartyl Aminopeptidase (M18AAP): radiolabel-based cell-based dose response assay to identify compounds that inhibit P. falciparum growth in RBCs, Set 2..; assay type: functional

Sequence of Paired box protein Pax-8 (Q06710 whole entry): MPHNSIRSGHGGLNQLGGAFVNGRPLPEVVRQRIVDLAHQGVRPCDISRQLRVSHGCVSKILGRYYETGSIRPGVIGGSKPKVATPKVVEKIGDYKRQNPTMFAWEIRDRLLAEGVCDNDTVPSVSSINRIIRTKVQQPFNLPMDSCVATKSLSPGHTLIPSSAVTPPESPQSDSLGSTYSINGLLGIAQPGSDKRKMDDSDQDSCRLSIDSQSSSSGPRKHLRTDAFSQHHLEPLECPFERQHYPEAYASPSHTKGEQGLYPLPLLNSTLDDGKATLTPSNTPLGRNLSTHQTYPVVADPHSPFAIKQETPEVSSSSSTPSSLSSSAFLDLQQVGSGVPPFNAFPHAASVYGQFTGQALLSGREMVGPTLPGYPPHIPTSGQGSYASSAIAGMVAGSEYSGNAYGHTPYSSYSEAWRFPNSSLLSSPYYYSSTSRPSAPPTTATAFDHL
Sequence of Kallikrein-7 (P49862 whole entry): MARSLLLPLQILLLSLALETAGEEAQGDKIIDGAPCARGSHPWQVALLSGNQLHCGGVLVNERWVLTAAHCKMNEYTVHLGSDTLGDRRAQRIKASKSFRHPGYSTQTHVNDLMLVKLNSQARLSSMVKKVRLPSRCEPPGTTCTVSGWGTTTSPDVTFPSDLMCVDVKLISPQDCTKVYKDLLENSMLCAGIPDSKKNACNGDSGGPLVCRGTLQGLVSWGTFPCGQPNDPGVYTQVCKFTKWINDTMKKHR
Sequence of Caspase-6 (P55212 24-179 limits assumed): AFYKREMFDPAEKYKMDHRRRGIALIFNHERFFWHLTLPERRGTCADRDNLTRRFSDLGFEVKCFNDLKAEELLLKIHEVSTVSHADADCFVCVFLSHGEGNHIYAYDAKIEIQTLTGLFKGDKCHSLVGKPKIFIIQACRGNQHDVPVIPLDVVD
Sequence of Caspase-6 (P55212 194-293 limits assumed): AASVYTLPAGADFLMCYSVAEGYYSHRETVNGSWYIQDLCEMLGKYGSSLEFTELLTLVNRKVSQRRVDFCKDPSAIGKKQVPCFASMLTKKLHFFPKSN
Sequence of NAD-dependent protein deacylase sirtuin-5, mitochondrial (Q9NXA8 whole entry): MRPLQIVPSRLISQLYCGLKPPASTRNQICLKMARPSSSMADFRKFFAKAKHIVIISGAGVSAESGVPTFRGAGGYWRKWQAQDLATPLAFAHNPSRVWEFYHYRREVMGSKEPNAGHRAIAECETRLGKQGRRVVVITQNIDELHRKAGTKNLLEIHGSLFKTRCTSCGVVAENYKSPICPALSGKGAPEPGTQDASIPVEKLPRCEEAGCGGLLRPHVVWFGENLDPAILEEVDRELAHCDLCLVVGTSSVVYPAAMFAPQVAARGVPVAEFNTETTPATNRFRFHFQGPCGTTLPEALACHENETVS
Sequence of RNA-editing ligase 1, mitochondrial (P86926 whole entry): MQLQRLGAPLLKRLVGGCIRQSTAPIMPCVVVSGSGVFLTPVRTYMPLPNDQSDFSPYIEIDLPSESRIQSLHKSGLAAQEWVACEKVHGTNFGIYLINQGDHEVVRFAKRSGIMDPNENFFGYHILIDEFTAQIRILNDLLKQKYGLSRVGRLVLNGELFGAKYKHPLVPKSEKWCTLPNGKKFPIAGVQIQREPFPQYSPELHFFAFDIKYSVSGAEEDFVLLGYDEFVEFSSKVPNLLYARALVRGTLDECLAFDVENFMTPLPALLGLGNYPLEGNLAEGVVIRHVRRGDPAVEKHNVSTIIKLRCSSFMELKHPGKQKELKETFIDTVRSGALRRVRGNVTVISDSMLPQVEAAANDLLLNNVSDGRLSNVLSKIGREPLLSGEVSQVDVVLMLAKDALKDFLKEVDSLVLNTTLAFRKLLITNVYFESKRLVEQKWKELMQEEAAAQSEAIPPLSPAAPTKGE
Sequence of Melanocortin receptor 4 (P32245 whole entry): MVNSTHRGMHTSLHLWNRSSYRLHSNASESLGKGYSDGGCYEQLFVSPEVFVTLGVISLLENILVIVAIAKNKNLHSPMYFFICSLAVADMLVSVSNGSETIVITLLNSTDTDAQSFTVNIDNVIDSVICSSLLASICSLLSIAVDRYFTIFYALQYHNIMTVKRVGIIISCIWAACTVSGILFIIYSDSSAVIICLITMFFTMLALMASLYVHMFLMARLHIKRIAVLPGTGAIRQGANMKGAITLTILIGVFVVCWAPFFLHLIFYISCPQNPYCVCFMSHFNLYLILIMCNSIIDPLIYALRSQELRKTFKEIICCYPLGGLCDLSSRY
Sequence of Caspase-7 (P55210 24-198 limits assumed): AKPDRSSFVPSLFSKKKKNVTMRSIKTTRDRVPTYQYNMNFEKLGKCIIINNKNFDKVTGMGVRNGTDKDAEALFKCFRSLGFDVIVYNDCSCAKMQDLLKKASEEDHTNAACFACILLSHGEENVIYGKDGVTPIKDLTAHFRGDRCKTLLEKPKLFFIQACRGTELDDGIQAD
Sequence of Caspase-7 (P55210 207-303 limits assumed): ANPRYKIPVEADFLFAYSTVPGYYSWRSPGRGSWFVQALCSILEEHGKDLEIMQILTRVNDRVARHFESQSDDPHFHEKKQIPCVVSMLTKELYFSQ

Nc1c(C(=O)NC2CCCC2)c2nc3ccccc3nc2n1CC1CCCO1 (stereo not drawn)
IC50 [1]: 21.1 µM (inactive)
EC50 [2]: 14.4 µM (active)
IC50 [3]: > 20 µM (inactive)
EC50 [4]: 13.2 µM (active)

CN1CCN(C(=O)COc2ccc(N(C)S(=O)(=O)c3ccc(F)cc3)cc2)CC1
EC50 [5]: > 60 µM (not active)
AC50 [6]: > 30 µM (inactive)
EC50 [7]: 346 nM (active)

Fc1ccc(-c2nc3cnccn3c2NC2CCCC2)cc1
EC50 [8]: > 7.72 µM (active)

COc1cc(NCCCCC(C)N)c2nccc(C)c2c1 (stereo not drawn)
AC50 [9]: 24.9 µM (active)
AC50 [10]: 2.52 µM (active)
IC50 [11]: > 100 µM (inactive)
AC50 [12]: 4.77 µM (active)
AC50 [13]: 5.43 µM (active)

C[C@H](O)C#Cc1ccc2c(c1)O[C@@H](CN(C)Cc1ccc(-c3ccccc3)cc1)[C@H](C)CN([C@@H](C)CO)S2(=O)=O
AC50 [14]: 6.73 µM (active)
AC50 [15]: 19.4 µM (active)
AC50 [16]: 28.3 µM (active)
IC50 [17]: > 64.6 µM (inactive)
AC50 [18]: 10.3 µM (active)
IC50 [19]: > 64.6 µM (inactive)
AC50 [20]: 27.6 µM (active)
AC50 [21]: 42.8 µM (active)

C[C@H](CO)N1C[C@H](C)[C@H](CN(C)Cc2ccc(C(F)(F)F)cc2)OCCCC[C@H](C)Oc2ccc(NC(=O)Cc3ccccc3)cc2C1=O
AC50 [14]: 6.42 µM (active)
AC50 [22]: 67 µM (active)
AC50 [23]: 35.4 µM (active)
AC50 [24]: 69.3 µM (active)
AC50 [25]: 49 µM (active)
AC50 [26]: 25.6 µM (active)

COc1ccc(CCN(C)c2c3ccccc3nc3ccccc23)cc1OC
IC50 [27]: 4.5 µM (active)
